Results: patent US20170320939A1, “COLL2-1 PEPTIDE AND ITS NITRATED FORM AS THERAPEUTIC TARGETS FOR OSTEOARTHRITIS TREATMENT” (Université de Liège, priority 2014, published 2017)
One block for each molecule: values may come before it. Square brackets hold non-standard residues; d marks the D form. Ends that are not written are not given here. Tyr(3-NO2) = N[C@@H](Cc1ccc(O)c([N+](=O)[O-])c1)C(=O)O

How the values were obtained:
[1] = test system: OA synovial fibroblast cells; assay: Intracellular H2O2 production in OA synovial fibroblast cells; format: cell-based, human; settings: 24 hours
Procedure: (§1) 1.1 Patients. Synovial tissue samples were obtained from 10 patients (8 women, 2 man; mean age 70 +/−6 years) with osteoarthritis (OA) of the knee at the time of total knee joint replacement surgery. All the subjects provided their informed consent.
(§2) 1.2 Isolation and culture of synovial cells. Synovium biopsies were digested is with collagenase from Clostridium histolyticum, Type IA (1 mg/ml) (Sigma-Aldrich, Saint-Louis, USA) and 0.25% trypsin (Sigma Aldrich, Saint Louis, USA) with 0.68 mM EDTA in Tris buffer 0.1M, pH 7.4 in complete medium (CM) (DMEM (Dulbecco's Modified Eagle's Medium) Low Glucose supplemented with 10 mM HEPES, 100 U/ml penicillin, 100 μg/ml streptomycin, 2 mM glutamine and 10% fetal calf serum (Lonza, Verviers, Belgium)) for 1 hour at 37° C. The cells suspensions were passed through a 70-μm filter to remove any undigested tissue. The filtered cells suspensions were then collected by centrifugation at 800 g and were cultured in culture flasks. After 24 hours, medium was changed to eliminate non adherent cells. Synovial fibroblasts cells (SFC) were used after three passages.
(§3) 1.3 Treatment of synovial fibroblast cells. Cells were seeded into a six-well plate at the density of 2×10^5 cells/well in 2 ml of CM. When the cells reached confluence, the CM was replaced with 1% serum medium for 24 h to keep the cells quiescent. Cells were incubated for 24 hours with or without peptides Coll2-1 (^108HRGYPGLDG^116; 0.45 and 4.5 nmol) or Coll2-1NO2 (^108HRGYPGLDG-NO2^116; 4 and 40 pmol) at a range of concentrations found in the blood of osteoarthritic patients.
1.5 Intracellular H2O2 and O2^∘^− productions. Levels of intracellular superoxide anion (O2^∘^−) and hydrogen peroxide (H2O2) were assessed spectrofluorimetrically by oxidation of specific probes: dihydroethidium (Molecular Probes, Leiden, The Netherlands) and H2DCFH-DA (Molecular Probes, Leiden, The Netherlands) respectively. Synovial cells seeded on 96-well plates (8×10^3 cells per well) were washed once with phosphate-buffered saline and then incubated with 50 μL of phosphate-buffered saline containing either 250 μM dihydroethidium or 200 μM H2DCFH-DA. The fluorescence intensity was measured every hour for 6 hours. The levels of O2^∘^− or H2O2 are expressed in arbitrary unit/living cell. The numbers of adherent cells were measured by crystal violet assay.

[2] = test system: OA synovial fibroblast cells; assay: Intracellular GSH assay in OA synovial fibroblast cells; format: cell-based, human; settings: Coll2-1NO2 at 4 and 40 pmol, 24 hours
Procedure: as §1
as §2, with “passages. […]” for “passages.”
1.6 GSH assay. Levels of intracellular GSH were assessed by monoclorobimane staining. […] The fluorescence intensities were measured at […] using excitation and emission wavelengths of 380 and 485 nm, respectively. The intracellular GSH level was expressed as arbitrary units of fluorescence intensity.

[3] = test system: OA synovial fibroblast cells; assay: NO production in OA synovial fibroblast cells; format: cell-based, human; settings: Coll2-1 (0.45 and 4.5 nmol) or Coll2-1NO2 (4 and 40 pmol), 24 hours
Procedure: as §1
as §2, with “passages. […]” for “passages.”
1.7 NO production. Nitric oxide production was evaluated using a DAF2-DA fluorescent probe (Molecular Probes, Leiden, The Netherlands). […] The fluorescence intensity was measured every hour for 6 hours. […] The numbers of adherent cells were measured by cristal violet assay.

TSP1 = TSP1 mRNA expression by Real Time PCR in OA synovial fibroblast cells; format: cell-based, human; settings: 24 hours
Procedure: as §3
(§4) 1.4 RNA extraction and Real Time Reverse Transcriptase-Polymerase Chain Reaction (RT PCR). Total RNA were extracted using the RNeasy Mini Kit (Qiagen, Netherlands) and were reverse transcribed with SuperScript III Reverse Transcriptase (Invitrogen, Belgium) according to the manufacturer's instructions. The cDNAs were quantified by real-time quantitative PCR using the Rotor Gene instrument (Qiagen, Venlo, Netherlands) and the SYBR Premix Ex Taq kit (Takara, Verviers, Belgium). The level of gene expression was determined by interpolation with a standard curve. To standardize mRNA levels, HPRT, a house keeping gene, was amplified as an internal control. The oligonucleotide primers sequences were as follow: HPRT forward, 5′-[…]-3′ (SEQ ID NO: 2); HPRT reverse, 5′-TGCCTGACCAAGGAAAGC-3′ (SEQ ID NO: 3); TSP-1 forward, 5′-CAGACCGCATTGGAGATAC-3′ (SEQ ID NO: 4); TSP-1 reverse, 5′-[…]-3′ (SEQ ID NO: 5); VEGF forward, 5′-TGCCTTGCTGCTCTAC-3′ (SEQ ID NO: 6); VEGF reverse, 5′-CACACAGGATGGCTTGAA-3′ (SEQ ID NO: 7); IL-6 forward, 5′-AAACAAATTCGGTACATCCTCG-3′ (SEQ ID NO: 8); IL-6 reverse, 5′-CCA GGC AAG TCT CCT CAT-3′ (SEQ ID NO: 9); IL-8 forward, 5′-GGAACCATCTCACTGTGTGTAA-3′ (SEQ ID NO: 10); IL-8 reverse, 5′-TGGAAAGGTTTGGAGTATGTCT-3′ (SEQ ID NO: 11).

VEGF = VEGF mRNA expression by Real Time PCR in OA synovial fibroblast cells; format: cell-based, human; settings: increasing concentrations: Coll2-1 (0.45 and 4.5 nmol) or Coll2-1NO2 (4 and 40 pmol), 24 hours
Procedure: as §3
(§5) 1.4 RNA extraction and Real Time Reverse Transcriptase-Polymerase Chain Reaction (RT PCR). Total RNA were extracted using the RNeasy Mini Kit (Qiagen, Netherlands) and were reverse transcribed with SuperScript III Reverse Transcriptase (Invitrogen, Belgium) according to the manufacturer's instructions. The cDNAs were quantified by real-time quantitative PCR using the Rotor Gene instrument (Qiagen, Venlo, Netherlands) and the SYBR Premix Ex Taq kit (Takara, Verviers, Belgium). The level of gene expression was determined by interpolation with a standard curve. To standardize mRNA levels, HPRT, a house keeping gene, was amplified as an internal control. […]

IL-8 = IL-8 mRNA expression by Real Time PCR in OA synovial fibroblast cells; format: cell-based, human; settings: increasing concentrations: Coll2-1 (0.45 and 4.5 nmol) or Coll2-1NO2 (4 and 40 pmol), 24 hours
Procedure: as §3, §4

IL-6 = IL-6 mRNA expression by Real Time PCR in OA synovial fibroblast cells; format: cell-based, human; settings: increasing concentrations of peptide, 24 hours
Procedure: as §3, §5

NF-κB = NF-κB activation, Western blotting of phospho-p65 and phospho-IκBα; format: cell-based; settings: oxidative stress inhibitors: apocynin 0.2 mM and diphenyleneiodonium 6.35 10^−2 mM
Procedure: Western blotting. Cells were collected at 4° C. and lysed on ice in 50 μl of buffer (25 mM Hepes, 150 mM NaCl, 0.5% Triton X-100, 10% glycerol, and 1 mM dithiothreitol) containing protease and phosphatase inhibitors. After incubation at 4° C. for 30 minutes, lysates were then centrifugated at 14,000 g for 30 minutes at 4° C. to remove insoluble debris. Protein concentrations were determined using BCA assay. Total protein extracts (10 μg) were fractioned by electrophoresis on a polyacrylamide gel (10%) and transferred onto a PVDF membrane. Membrane were blocked for 1 h in TBS-Tween containing 2% bovine serum albumin (phosphor-NF-κB p65 and phospho-IκBα). Membranes were then incubated overnight at 4° C. with primary antibodies. Anti-rabbit phospho-NF-κB p65 (1:1000 dilution), anti-rabbit phospho-IκBα (1:1000 dilution) were used. Horse-radish peroxidase (HRP)-linked anti-rabbit IgG antibody (1:2000 dilution) was used as secondary antibody.

TLR-4 = target: T1, TLR-4 (Homo sapiens, UniProt O00206); assay: Inhibition of TLR-4 receptor: IL-8 expression by osteoarthritic synoviocytes; format: cell-based; settings: 1 hour pre-treatment with CLI-095 (500 nM, 1 and 2.5 μM), then 24 hours Coll2-1 at 4.5 nmol
T1 construct: endogenous in cells; host or cells: osteoarthritic synoviocytes (synovial fibroblast cells)
T1 sequence (O00206 24-839): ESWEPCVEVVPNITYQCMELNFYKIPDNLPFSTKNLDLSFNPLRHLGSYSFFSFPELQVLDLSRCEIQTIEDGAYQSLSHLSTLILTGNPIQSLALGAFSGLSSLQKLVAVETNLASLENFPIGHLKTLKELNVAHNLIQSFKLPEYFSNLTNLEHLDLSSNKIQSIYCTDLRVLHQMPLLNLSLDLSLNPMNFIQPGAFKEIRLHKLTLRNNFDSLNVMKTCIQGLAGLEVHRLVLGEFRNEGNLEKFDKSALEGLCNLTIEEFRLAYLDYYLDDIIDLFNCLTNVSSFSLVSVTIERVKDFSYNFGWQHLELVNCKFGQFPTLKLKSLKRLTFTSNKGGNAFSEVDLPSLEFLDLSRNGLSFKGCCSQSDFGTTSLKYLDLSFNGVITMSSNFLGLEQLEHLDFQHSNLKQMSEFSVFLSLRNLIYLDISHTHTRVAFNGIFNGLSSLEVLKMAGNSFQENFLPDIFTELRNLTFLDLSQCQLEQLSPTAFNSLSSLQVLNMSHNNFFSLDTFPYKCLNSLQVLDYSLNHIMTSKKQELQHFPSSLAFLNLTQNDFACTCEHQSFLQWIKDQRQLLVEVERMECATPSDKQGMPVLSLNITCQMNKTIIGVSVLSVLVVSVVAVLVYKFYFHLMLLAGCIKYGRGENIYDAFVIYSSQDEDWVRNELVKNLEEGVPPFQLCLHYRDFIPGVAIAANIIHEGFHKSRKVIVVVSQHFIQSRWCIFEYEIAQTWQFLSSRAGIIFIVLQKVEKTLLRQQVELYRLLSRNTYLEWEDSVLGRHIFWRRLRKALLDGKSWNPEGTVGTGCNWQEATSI
Description: as §4
Inhibition of TLR-4 receptor. […]

Molecule: HRGY(NO2)PGLDG (HRG[Tyr(3-NO2)]PGLDG) [Coll2-1NO2, nitrated form of the Coll2-1 peptide]
intracellular production of H2O2 ([1]; Coll2-1NO2 at 4 pmol): significantly increased
intracellular production of H2O2 ([1]; Coll2-1NO2 at 40 pmol): significantly increased
intracellular level of GSH [2]: significant decrease
production of NO (nitric oxide) [3]: decreased significantly
decrease of TSP1 expression, significance (TSP1; Coll2-1NO2 at 40 pmol): significant
TSP1 expression (TSP1; increasing concentrations: Coll2-1 (0.45 and 4.5 nmol) or Coll2-1NO2 (4 and 40 pmol)): decreased
VEGF expression (VEGF): tended to increase
IL-8 expression (IL-8): increased
IL-6 expression (IL-6): increased

Molecule: c1ccc2c(c1)[I+]c1ccccc1-2 [diphenyleneiodonium]
Coll2-1 induced IκBα degradation (NF-κB): decreased
Coll2-1 induced phosphorylation and translocation of p65 (NF-κB): inhibited

Molecule: COc1cc(C(C)=O)ccc1O [apocynin]
Coll2-1 induced IκBα degradation (NF-κB): decreased
Coll2-1 induced phosphorylation and translocation of p65 (NF-κB): inhibited

IL-8 expression by osteoarthritic synoviocytes in the presence of Coll2-1 (TLR-4): decrease
Molecule: CCOC(=O)C1=CCCC[C@H]1S(=O)(=O)Nc1ccc(F)cc1Cl [CLI-095]
